Here are results for 1 compound from patent publication US10973763B2, “Inhalable pharmaceutical compositions” (Berg LLC, priority 2011, dated 2021).

Where “and” joins values, the source holds several entries; their conditions need not be identical. Equal entries are not always repeated.

Series [1] is described as follows: Particle size distribution by laser diffraction (LD). Format: physicochemical. The following applies: bulk CoQ10 powder. The procedure:
Bulk CoQ10 powder was dispersed in 20% (v/v) 1,3-propanediol in deionized water for analysis of particle size distribution. This dispersed sample was then added to a small cell apparatus in a Malvern Mastersizer S® instrument (Malvern Instruments, Worcestershire, UK) equipped with a 300 mm lens until 5-10% obscuration was attained. The internal phase and dispersant refractive indexes were 1.45 and 1.33, respectively.
Particle size distribution testing of the dispersed formulations was performed with LD using a wet sample dispersion unit stirring at 1,000 rpm coupled to a Malvern Spraytec® (Malvern Instruments, Worcestershire, UK) equipped with a 300 mm lens. The dispersed formulations were added to distilled water (dispersant) until approximately 5% laser obscuration was attained. The internal phase and dispersant refractive indexes were set as 1.45 and 1.33, respectively. […] Span is a measurement of particle size distribution calculated as [Dv(90)−[…]]/Dv(50)]. […]
Particle size distribution testing of the dispersed formulations was performed with LD using a wet sample dispersion unit stirring at 1,000 rpm coupled to a Malvern Spraytec® (Malvern Instruments, Worcestershire, UK) equipped with a 300 mm lens. […] Span is the measurement of particle size distribution calculated as [Dv(90)−Dv(10)]/Dv(50)]. […]

The nature of series [2]: CoQ10 level in lung tissue after nose-only aerosol dosing. Format: in vivo, mice. The procedure: (§1) Animals were caged in groups of 4 and maintained on a normal rodent chow diet with free access to water. Prior to dosing, CD-1® IGS ICR mice (Charles River Laboratories International, Inc., Wilmington, Mass., USA) were individually acclimatized for approximately 10 minutes per day for 3 days into restraint tubes, restricted by an anterior nose insert and a posterior holder. The dosing apparatus was placed inside a fume hood to collect escaping aerosol containing drug. To avoid influence from the airflow provided by the fume hood, an erlenmeyer container was placed at the end of the tubing system as a buffer. The airflow rate was set to 1 L/min to ensure proper drug aerosolization into the nose-only chamber (internal volume: 230 mL; diameter: 3.8 cm; length: 20.3 cm) using an Aeroneb Pro® vibrating-mesh nebulizer (Aerogen, Galway, Ireland). Following preparation, all formulations (saline control, DMPC, DPPC, and DSPC) were dosed for 15 minutes to mice weighing from 23 to 33 g each, at time of dosing. Each single-dose studied group consisted of thirty-six male animals. At each time point (0.5, 1, 3, 8, 24, and 48 hours after the end of the aerosolization event) six animals randomly selected from different dosing events of the same formulation were sacrificed by narcosis with carbon dioxide. As part of the collection process, blood was withdrawn by cardiac puncture, lungs were harvested, and a nasal wash was performed. […]
For each experiment, CoQ10 levels were determined after liquid extraction using liquid chromatography coupled with tandem mass spectrometry (LC-MS/MS). […]
Samples were tested for normality using the Shapiro Wilk test (p<0.05) and outliers were excluded from data analysis. Pharmacokinetic parameters were determined using Microsoft Office Excel 2007 software (Redmond, Wash.) with the add-in program PKSolver. […] At each time point, lung tissue samples were analyzed for statistical differences among different groups with One-Way ANOVA for significance (p<0.05). […]

The subject of series [3] is mice. The series can be described thus: Survival and health of mice after nebulization event. The following applies: 48 hours after the end of the nebulization event. The format is in vivo. The procedure:
as §1, with “dioxide.” for “dioxide. As part of the collection process, blood was withdrawn by cardiac puncture, lungs were harvested, and a nasal wash was performed.”

In series [4] the test system is IL-12. Description: Inflammatory response: BAL supernatant ELISA for IL-12. The format is in vivo, mice. The following applies: pulmonary administration. Here is the method:
The inflammatory response to the administration of hydrophobic bioactive agents (e.g., as discussed in connection with Example 1-3 above) was measured. Surgery is performed on sacrificed mice to expose the pleural cavity and trachea at the throat. […] An aliquot (about 0.75 mL) of phosphate buffered saline is instilled through the cannula into the lungs and removed to wash the bronchial and alveolar surfaces. This process is repeated for a total of three washes. The phosphate buffered saline containing cells is placed into centrifuge vials and centrifuged at about 3000 rpm (MiniSpin Plus, Eppendorf International, Hamburg, Del.). The supernatant is removed leaving the collected cells in the pellet. The supernatant from the BAL (Bronchoalveolar Lavage) is analyzed by enzyme-linked immunosorbent assay (ELISA) for IL-12 elevation (n=2 per sample tested).
A general note: An ELISA detects its analyte on a solid surface through an enzyme-linked reagent.

A short description of series [5]: Drug loading suitable for continuous nebulization (Example 5). The format is physicochemical. The note with it: 15-minute nebulization, Aeroneb Pro, DMPC 2.5% w/w. Here is the method: Formulations were prepared based upon the general methods discussed in connection with Examples 1 and 2. For this study, specific dispersions were prepared with 50 microfluidization discrete passes using 2.5% w/w of dimyristoyl phosphatidylcholine (DMPC) and 7.5%, 7.0%, 6.0%, 5.0%, or 4.0% w/w of CoQ10. The dispersions were then aerosolized within 24 hour using an Aeroneb Pro® nebulizer for 15 minute aerosolization event. The aerosolization profile was monitored via analysis of Total Aerosol Output (TAO) and using laser diffraction with a Malvern Spraytec® coupled with an inhalation cell as described above.

Where [6] appears, read: previous studies, same nebulizer.

With `COC1=C(OC)C(=O)C(C/C=C(\C)CC/C=C(\C)CC/C=C(\C)CC/C=C(\C)CC/C=C(\C)CC/C=C(\C)CC/C=C(\C)CC/C=C(\C)CC/C=C(\C)CCC=C(C)C)=C(C)C1=O` [CoQ10, Coenzyme Q10], the “Dv(50) / particle size” value in series [1] was 30 μm and 29.87 μm. Also, in series [2] (after 15-minute aerosol dosing), the “time CoQ10 stays in the lungs at relatively high concentrations” value is recorded as “up to 48 hours”. In addition, in series [2] (setting [6]), the “lung Cmax relative to cyclosporine A dispersions” value was at most 75 fold and the “lung Cmax relative to itraconazole dispersions” value is recorded as at most 165 fold. In addition, the “survival and health of mice” value in series [3] was “all mice were alive and presenting healthy signs”. Further, in series [4] (ELISA), the “IL-12 levels in BAL supernatant” value is “not associated with a rise in IL-12 levels”. The lung inflammation entry in series [4] was “does not cause lung inflammation”. For the same compound, in series [5], the “maximum nominal drug loading without intermittent mist” value is 4 % w/w.
